Columns and labels:
[1] = test system: Corn (Zea maydis var. M314A10) seedlings; assay: Cold tolerance of corn seedlings after seed treatment (seedling mortality after exposure to -5° C.); assay type: in vivo; settings: for Observed efficacy (%) of cold tolerance GS 10 (3 hrs): % decrease of seedling mortality vs untreated control; for Observed efficacy (%) of cold tolerance GS 10 (3 hrs) / Seedling mortality (mean %) GS 10 (3 hrs): S8 2.5 g a.i./100 kg seed, Ia 1 g a.i./100 kg seed; for Seedling mortality (mean %) GS 10 (3 hrs): corn seed treatment, -5° C. for 3 hrs at growth stage 10, recorded 3 days after cold treatment, control 27
Experimental: Corn (Zea maydis var. M314A10) seeds were treated in a Hege 11 seed treater in a total slurry volume of 1000 ml/100 kg seed. Treatments comprised:
1) Water (control) 2) Pyraclostrobin (S8) (2.5 g a.i./100 kg); 3) Compound Ia (1 g a.i./100 kg); 4) Pyraclostrobin (S8) (2.5 g a.i./100 kg)+compound Ia (1 g a.i./100 kg).
CF Clear Binder (19 ml/100 kg seed) and color coat blue (13 ml/100 kg seed) were added to all treatments including the check. Following seed treatment, seeds were allowed to dry overnight. Seeds were planted in plastic pots (10 cm×10 cm×12 cm). Experiments were conducted using natural soil (sandy loam soil, source NC, U.S.A.). Pots were placed inside the greenhouse in a completely randomized design. Seedlings were grown at 25° C., until they reached growth stages 10 (first leaf through coleoptile, BBCH Scale). At growth stages 10, seedlings were placed in a completely randomized design in a low temperature incubator (Thermo Electron Corporation) and exposed to −5° C. during 3 hrs. At the time of cold exposure, pots were at field capacity. Percentage of seedling mortality for each treatment was recorded 3 days after the cold treatment.
The efficacy of induced cold tolerance (E) was calculated as % decrease of seedling mortality in the treatments compared to the untreated control:
a corresponds to the seedling mortality (%) of the treated plants and b corresponds to the seedling mortality (%) of the untreated (control) plants
The expected efficacy of the combination of the active compounds were estimated using Colby's formula (Colby, S. R., Calculating synergistic and antagonistic responses of herbicide combinations, Weeds, 15, pp. 20-22, 1967) and compared with the observed efficacy.
E=x+y−x·y/100 Colby's formula • E expected efficacy, expressed in % of the untreated control, when using the mixture of the active compounds A and B at the concentrations a and b • x efficacy, expressed in % of the untreated control, when using the active ingredient A at the concentration a • y efficacy, expressed in % of the untreated control, when using the active ingredient B at the concentration b

[2] = test system: Soybeans, variety TMG 103 RR; assay: Soybean field trial: crop emergence and crop establishment after seed treatment (plant count per 5 m row); assay type: in vivo; settings: for Observed efficacy (%) 12 days after planting / Observed efficacy (%) 33 days after planting: increase in number of plants vs control, S6 75, Ia 50 g a.i./100 kg seed; for Number of plants per 5 m distance (mean) 12 days after planting / Number of plants per 5 m distance (mean) 33 days after planting: soybean seed treatment, S6 75 g a.i./100 kg seed, Ia 50 g a.i./100 kg seed; for Number of plants per 5 m distance (mean) 12 days after planting: crop emergence, control 35; for Number of plants per 5 m distance (mean) 33 days after planting: crop establishment, control 34
Experimental: Soybeans were grown in 2008 in the Rondonopolis region, Mato Grosso, Brazil. The variety TMG 103 RR was planted at a seeding rate of 45 kg/ha. The trial was setup as randomized bloc design with 4 replications. Plot size was 10 m^2. The soybean seed was treated prior to planting with either orysastrobin (S6), compound Ia or was left untreated (Control). Compound Ia was used as an FS formulation (100 g a.i./L) with a dose rate of 500 ml/100 kg seed (50 g a.i./100 kg). Orysastrobin (S6) was applied as an FS formulation (250 g a.i./L) with a dose rate of 300 ml per 100 kg seed (75 g a.i./100 kg). In the combination treatments of compound Ia and orysastrobin, both formulations were applied in a sequence. The formulations were applied in a total slurry volume of […] of seed.
The observed efficacy (E) of the compounds on crop emergence and crop establishment as an indicator of plant vitality and plant vigor was determined by counting the plants in a row on a distance of 5 m at 12 and 33 days after planting.
The efficacy of the fungicidal treatments was calculated as the increase in the number of plants in the treatments compared to the control (%):
a corresponds to the number in the treated and b corresponds to the number of plants in the untreated (control) plots
The expected efficacy of the combination of the active compounds was estimated using Colby's formula (see example 1 above)

Row | Compound | Observed efficacy (%) of cold tolerance GS 10 (3 hrs) [1] | Seedling mortality (mean %) GS 10 (3 hrs) [1] | seedling mortality, as an indicator of plant vigor (in words) ([1]; vs water control, table 4) | Observed efficacy (%) 12 days after planting [2] | Observed efficacy (%) 33 days after planting [2] | Number of plants per 5 m distance (mean) 12 days after planting [2] | Number of plants per 5 m distance (mean) 33 days after planting [2] | number of plants, as an indicator of plant vigor (in words) ([2]; vs untreated control, table 6)
1 | Cn1cc(C(=O)Nc2ccccc2-c2cc(F)c(F)c(F)c2)c(C(F)F)n1 [Compound Ia, N-(3′,4′,5′-trifluorobiphenyl-2-yl)-3-difluoromethyl-1-methyl-1H-pyrazole-4-carboxamide] | 15% | 23 (b) % | significantly decreased | 40.0% | 32.3% | 49 | 45 | significantly increased
2 | CNC(=O)/C(=N/OC)c1ccccc1CO/N=C(C)/C(=N/OC)C(/C)=N/OC [Orysastrobin (S6), orysastrobin, reference compound] | – | – | – | 57.1% | 52.9% | 55 | 52 | –
3 | COC(=O)N(OC)c1ccccc1COc1ccn(-c2ccc(Cl)cc2)n1 [Pyraclostrobin (S8), pyraclostrobin, reference compound] | 22% | 21 (c) % | – | – | – | – | – | –
